According to patent publication US11091478B2 (Fochon Pharmaceuticals, Ltd., priority 2017, dated 2021):

Experiments:
DOHH2 cells = assay: Cell proliferation assay (MTS), DOHH2 cells, 120 h; format: cell-based; details: Homo sapiens, DOHH-2, 120 h
Summary of the method: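 Proliferation was scored by MTS (2 h, then SDS stop, A490 with 650 nm reference) and IC50 derived. Compound ran at nine final concentrations from 1.5 to 10000 nM. DOHH2 were incubated 120 h and RS4;11 72 h, both plated at 5000 cells/well in RPMI-1640 plus 10% FBS.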

RS4;11 cells = assay: Cell proliferation assay (MTS), RS4;11 cells, 72 h; format: cell-based; details: Homo sapiens, RS4-11, 72 h
Description: Cell Proliferation Assays
MTS testing kit was purchased from Promega. The RPMI-1640, Fetal bovine serum and Penicillin-Streptomycin were purchased from Gibco. Dimethyl sulfoxide (DMSO) was purchased from Sigma.
To investigate whether a compound is able to inhibit the activity of BCL-2 in cells, a mechanism-based assay using DOHH2 (DSMZ No.® ACC 47) and RS4;11 (ATCC® CRL-1873™) cell was developed. In this assay, inhibition of Bcl-2 was detected by the inhibition of DOHH2 cells proliferation. DOHH2 cells were cultured in culture flasks to 40-80% confluence in RPMI-1640 plus 10% fetal bovine serum. Cells were collected and plated onto 96-well plates at desired cell density (5000 cells/well). Plates were incubated overnight at 37° C., with 5% CO2 to adhere. Compounds were added to the plates, and the final compound concentrations were 10000, 3333, 1111, […], 124, 41, 14, 4.6 and 1.5 nM. Plates plated with DOHH2 or RS4;11 cells were placed at 37° C., with 5% CO2 for 120 h (DOHH2) or 72 h (RS4;11) respectively. 20 μl MTS/100 μl medium mixture solution were added to each well and incubate the plates for exactly 2 hours. The reaction was stopped by adding 25 μl 10% SDS per well. Measure absorbance at 490 nm and 650 nm (reference wavelength). IC50 was calculated using GraphPad Prism 5.0.
Select compounds prepared as described above were assayed according to the biological procedures described herein.

Row | IC50 (RS4;11 cells) [nM] | Compound | IC50 (DOHH2 cells) [nM]
1 | 38 | CC1(C)CCC(CN2CCN(c3ccc(C(=O)NS(=O)(=O)c4cc5c(c([N+](=O)[O-])c4)N[C@H](CCN4CCOCC4)C5)c(Oc4cnc5[nH]ccc5c4)c3)CC2)=C(c2ccc(Cl)cc2)C1 [Example 1-2, (S)-2-((1H-pyrrolo[2,3-b]pyridin-5-yl)oxy)-4-(4-((4′-chloro-5,5-dimethyl-3,4,5,6-tetrahydro-[1,1′-biphenyl]-2-yl)methyl)piperazin-1-yl)-N-((2-(2-morpholinoethyl)-7-nitroindolin-5-yl)sulfonyl)benzamide] | 79
2 | 8 | CN1CCN(C[C@@H]2Cc3cc(S(=O)(=O)NC(=O)c4ccc(N5CCN(CC6=C(c7ccc(Cl)cc7)CC(C)(C)CC6)CC5)cc4Oc4cnc5[nH]ccc5c4)cc([N+](=O)[O-])c3N2)CC1 [Example 1-3, (S)-2-((1H-pyrrolo[2,3-b]pyridin-5-yl)oxy)-4-(4-((4′-chloro-5,5-dimethyl-3,4,5,6-tetra-hydro-[1,1′-biphenyl]-2-yl)methyl)piperazin-1-yl)-N-((2-((4-methylpiperazin-1-yl)meth-yl)-7-nitroindolin-5-yl)sulfonyl)benzamide] | 20
3 | 51 | CN(C)C[C@@H]1Cc2cc(S(=O)(=O)NC(=O)c3ccc(N4CCN(CC5=C(c6ccc(Cl)cc6)CC(C)(C)CC5)CC4)cc3Oc3cnc4[nH]ccc4c3)cc([N+](=O)[O-])c2N1 [Example 1-5] | 211
4 | 3 | CN1CCN(C[C@H]2Cc3cc(S(=O)(=O)NC(=O)c4ccc(N5CCN(CC6=C(c7ccc(Cl)cc7)CC(C)(C)CC6)CC5)cc4Oc4cnc5[nH]ccc5c4)cc([N+](=O)[O-])c3N2)CC1 [Example 1-7, (R)-2-((1H-pyrrolo[2,3-b]pyridin-5-yl)oxy)-4-(4-((4′-chloro-5,5-dimethyl-3,4,5,6-tetra-hydro-[1,1′-biphenyl]-2-yl)methyl)piperazin-1-yl)-N-((2-((4-methylpiperazin-1-yl)meth-yl)-7-nitroindolin-5-yl)sulfonyl)benzamide] | 26
5 | 1 | CC1(C)CCC(CN2CCN(c3ccc(C(=O)NS(=O)(=O)c4cc5c(c([N+](=O)[O-])c4)N[C@@H](CN4CCOCC4)C5)c(Oc4cnc5[nH]ccc5c4)c3)CC2)=C(c2ccc(Cl)cc2)C1 [Example 1-8, (R)-2-((1H-pyrrolo[2,3-b]pyridin-5-yl)oxy)-4-(4-((4′-chloro-5,5-dimethyl-3,4,5,6-tetra-hydro-[1,1′-biphenyl]-2-yl)methyl)piperazin-1-yl)-N-((2-(morpholinomethyl)-7-nitro-indolin-5-yl)sulfonyl)benzamide] | 27
6 | 80 | CC1(C)CCC(CN2CCN(c3ccc(C(=O)NS(=O)(=O)c4cc5c(c([N+](=O)[O-])c4)N[C@@H](CN4CCC(C)(O)CC4)C5)c(Oc4cnc5[nH]ccc5c4)c3)CC2)=C(c2ccc(Cl)cc2)C1 [Example 1-9, (R)-2-((1H-pyrrolo[2,3-b]pyridin-5-yl)oxy)-4-(4-((4′-chloro-5,5-dimethyl-3,4,5,6-tetra-hydro-[1,1′-biphenyl]-2-yl)methyl)piperazin-1-yl)-N-((2-((4-hydroxy-4-methylpiperidin-1-yl)methyl)-7-nitroindolin-5-yl)sulfonyl) benzamide] | 66
7 | 16 | CN(C)C[C@H]1Cc2cc(S(=O)(=O)NC(=O)c3ccc(N4CCN(CC5=C(c6ccc(Cl)cc6)CC(C)(C)CC5)CC4)cc3Oc3cnc4[nH]ccc4c3)cc([N+](=O)[O-])c2N1 [Example 1-10, (R)-2-((1H-pyrrolo[2,3-b]pyridin-5-yl)oxy)-4-(4-((4′-chloro-5,5-dimethyl-3,4,5,6-tetra-hydro-[1,1′-biphenyl]-2-yl)methyl)piperazin-1-yl)-N-((2-((dimethylamino)methyl)-7-nitroindolin-5-yl)sulfonyl)benzamide] | 33
